Biological target: Elastase (Pseudomonas aeruginosa (strain ATCC 15692 / DSM 22644 / CIP 104116 / JCM 14847 / LMG 12228 / 1C / PRS 101 / PAO1), UniProt P14756)
Test: In Vitro LasB Activity Assay
Description: Fluorescence intensity was measured for 60 min at 37° C. in black 384-well microtiter plates (Greiner BioOne, Kremsm nster, Austria) using a CLARIOstar microplate reader (BMG Labtech, Ortenberg, Germany) with an excitation wavelength of […] and an emission wavelength of 415±20 nm. The assay was performed in a final volume of 50 μL of assay buffer (50 mM Tris, pH 7.2, 2.5 mM CaCl2), 0.075% Pluronic F-127, 5% DMSO) containing LasB at a final concentration of […] 0.3 nM and the substrate at 150 μM. Before substrate addition, compounds were preincubated with the enzyme at 37° C. for 15 min. Experiments were performed in duplicates and repeated for at least two times. Blank controls without enzyme were performed. After blank subtraction, the slope of samples containing inhibitors (v) was divided by the slope of a simultaneously started uninhibited enzymatic reaction (v0).

Elastase, sequence (P14756 whole entry): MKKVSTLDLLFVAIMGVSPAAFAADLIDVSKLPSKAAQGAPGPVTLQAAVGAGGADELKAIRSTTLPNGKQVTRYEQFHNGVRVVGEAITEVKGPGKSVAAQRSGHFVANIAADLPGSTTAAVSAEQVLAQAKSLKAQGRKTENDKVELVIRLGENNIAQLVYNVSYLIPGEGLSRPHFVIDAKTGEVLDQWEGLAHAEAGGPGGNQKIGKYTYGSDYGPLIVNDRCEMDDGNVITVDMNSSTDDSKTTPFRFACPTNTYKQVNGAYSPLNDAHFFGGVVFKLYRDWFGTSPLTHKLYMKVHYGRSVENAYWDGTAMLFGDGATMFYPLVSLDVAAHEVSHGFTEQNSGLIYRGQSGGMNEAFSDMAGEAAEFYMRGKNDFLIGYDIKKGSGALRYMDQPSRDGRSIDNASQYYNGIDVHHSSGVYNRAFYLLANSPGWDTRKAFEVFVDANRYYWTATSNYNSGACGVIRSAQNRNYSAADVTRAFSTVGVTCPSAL

## CC(C)CC(C(=O)NO)C(=O)Nc1ccc(Cn2cc(CNS(=O)(=O)c3ccc(C(=O)O)cc3)nn2)cc1 (stereo unspecified) [US20250170104, Compound 209]
  IC50: 44.6 nM
